The subject of assay [1] is TB14, TCB14, TxtA and TxtB. In words: Conversion to thaxtomin A analogues in the reactions of TB14, TCB14, TxtA and TxtB. The class given is biochemical. The settings on record: thaxtomin A analogue product from the listed L-Phe and L-Trp analogues.
The test system of a further assay is radish seedlings. In words: Herbicidal activity in radish seedling assay. It is filed as in vivo. The settings on record: total seedling length after 7 days on agar, 0 to 2 μM, mean±SD (n=4). The method, then:
Established protocols were followed to quantitate thaxtomin herbicidal activity in radish seedling assay (Jiang, G. et al. Appl Environ Microbiol 2018 84:e00164-18). In brief, serial concentrations (0 to 2 μM) of thaxtomins in DMSO were added into 20 mL of 1.5% warm agar solution with gentle agitation to prepare agar plates. DMSO was included as the negative control. Radish seeds (Burpee) were surface disinfested, pregerminated and selected when the radicle was […] and just emerged from the seed coat. Six radish seedlings were equally located on the surface of each plate with root ends pointed to the same direction. Agar plates were covered, sealed with Parafilm. Seedlings in agar plates grew at room temperature under 14-16 h fluorescent light per day for 7 days, and total seedling lengths were then recorded. The longest and the shorted seedlings would be excluded from the data analysis. Percent inhibition relative to the mean growth response in negative control was then calculated. Dose-response curves were fit to a four-parameter logistic model, and I50 values were determined from these curves.

The next assay relates to TB14, TxtA and TxtB. In words: Conversion to nitro-DKPs in the reactions of TB14, TxtA and TxtB. The settings on record: nitro-DKP product from the listed L-Phe and L-Trp analogues. It is filed as biochemical.

Drawing on patent US20210163451A1, “METHODS AND COMPOSITIONS FOR SUBSTITUTED 2,5-DIKETOPIPERAZINE ANALOGS” (University of Florida Research Foundation, Inc., priority 2018, published 2021), this text covers Conversion rate % and IC50 for two compounds.

One may read the IC50 as the concentration at which inhibition is half-maximal. In turn, `CN1C(=O)[C@](O)(Cc2cccc(O)c2)N(C)C(=O)[C@@H]1Cc1c[nH]c2cccc([N+](=O)[O-])c12` [Compound 1, thaxtomin A, reference compound] gave a Conversion rate % in assay [1] of 6.84%. The midpoint of inhibition with radish seedlings, the IC50, lay at 390 ± 30 nM.
Regarding `Cc1ccc(C[C@H]2C(=O)N(C)[C@@H](Cc3c[nH]c4cccc([N+](=O)[O-])c34)C(=O)N2C)cc1` [compound 54], the Conversion rate % in the assay with TB14, TxtA and TxtB amounted to 15.69%.
